Reference: ChEMBL document CHEMBL5321225, “DeepCancerMap: A versatile deep learning platform for target- and cell-based anticancer drug discovery” (Eur J Med Chem, 2023)

Tests used:
CNE-2 = experiment: Antiproliferative activity against human CNE-2 cells assessed as reduction in cell viability; assay type: functional, cell-based
A549 = experiment: Antiproliferative activity against human A549 cells assessed as reduction in cell viability; assay type: functional, cell-based

| IC50 (A549) [nM] | Structure (SMILES) | IC50 (CNE-2) [nM] |
| --- | --- | --- |
| > 50000 | CCCCCCC(=O)Nc1ncc(Cc2ccc(OC)cc2)s1 | 2030 |
| > 50000 | Cc1ccc(C(=O)Nc2ncc(Cc3cccc(Cl)c3)s2)cc1 | 2990 |
